Data taken from PubChem BioAssay (NCI).
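1) Cells in 96-well plates. 2) Compound, 48 h, 5 concentrations. 3) Linear interpolation between surrounding doses. 4) Unreached endpoint = highest concentration. Abbreviation: GI50, concentration required for 50% inhibition of growth. At the TGI there is no net growth.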

Assays:
Test in all cases: growth of human tumour cells (NCI), 48 h; in the data active means GI50 below about 0.43 µM; inactive means the rest
UACC-62 melanoma = tested on: UACC-62 melanoma
LOX IMVI melanoma = tested on: LOX IMVI melanoma
KM12 colon = tested on: KM12 colon
UACC-257 melanoma = tested on: UACC-257 melanoma
SF-295 CNS = tested on: SF-295 CNS
MDA-MB-231 breast = tested on: MDA-MB-231 breast
A549 NSCLC = tested on: A549 NSCLC
OVCAR-3 ovarian = tested on: OVCAR-3 ovarian
SR leukemia = tested on: SR leukemia
OVCAR-4 ovarian = tested on: OVCAR-4 ovarian
IGROV1 ovarian = tested on: IGROV1 ovarian
NCI-H460 lung = tested on: NCI-H460 lung
SK-MEL-5 melanoma = tested on: SK-MEL-5 melanoma
RPMI-8226 leukemia = tested on: RPMI-8226 leukemia
SNB-75 CNS = tested on: SNB-75 CNS
DU-145 prostate = tested on: DU-145 prostate
SNB-19 CNS = tested on: SNB-19 CNS
HL-60(TB) leukemia = tested on: HL-60(TB) leukemia
HCC-2998 colon = tested on: HCC-2998 colon
U251 CNS = tested on: U251 CNS
SN12C renal = tested on: SN12C renal
BT-549 breast = tested on: BT-549 breast
OVCAR-8 ovarian = tested on: OVCAR-8 ovarian
CAKI-1 renal = tested on: CAKI-1 renal
NCI/ADR-RES ovarian = tested on: NCI/ADR-RES ovarian
HT29 colon = tested on: HT29 colon
MDA-MB-435 = tested on: MDA-MB-435
NCI-H226 lung = tested on: NCI-H226 lung
SW-620 colon = tested on: SW-620 colon
PC-3 prostate = tested on: PC-3 prostate
SF-539 CNS = tested on: SF-539 CNS
SK-MEL-28 melanoma = tested on: SK-MEL-28 melanoma
RXF 393 renal = tested on: RXF 393 renal
SK-OV-3 ovarian = tested on: SK-OV-3 ovarian
SF-268 CNS = tested on: SF-268 CNS
786-0 renal = tested on: 786-0 renal
HOP-92 NSCLC = tested on: HOP-92 NSCLC
TK-10 renal = tested on: TK-10 renal
COLO 205 colon = tested on: COLO 205 colon
MALME-3M melanoma = tested on: MALME-3M melanoma
NCI-H522 lung = tested on: NCI-H522 lung
T-47D breast = tested on: T-47D breast
M14 melanoma = tested on: M14 melanoma
MCF7 breast = tested on: MCF7 breast
ACHN renal = tested on: ACHN renal
OVCAR-5 ovarian = tested on: OVCAR-5 ovarian
SK-MEL-2 melanoma = tested on: SK-MEL-2 melanoma
A498 renal = tested on: A498 renal
K-562 leukemia = tested on: K-562 leukemia
EKVX NSCLC = tested on: EKVX NSCLC
NCI-H23 lung = tested on: NCI-H23 lung
UO-31 renal = tested on: UO-31 renal
HOP-62 NSCLC = tested on: HOP-62 NSCLC
CCRF-CEM leukemia = tested on: CCRF-CEM leukemia
HCT-116 colon = tested on: HCT-116 colon
HS 578T breast = tested on: HS 578T breast
HCT-15 colon = tested on: HCT-15 colon
MDA-N = tested on: MDA-N
MOLT-4 leukemia = tested on: MOLT-4 leukemia

C/C(=N\O)c1cccc(Nc2cc(-c3ccccc3)nc3c(O)cccc23)c1
17.2 µM: TGI (NCI-H460 lung) | TGI (SN12C renal)
7.98 µM: TGI (RPMI-8226 leukemia)
19.7 µM: TGI (LOX IMVI melanoma)
11.5 µM: TGI (786-0 renal)
28.4 µM: TGI (SNB-75 CNS)
19.9 µM: TGI (PC-3 prostate)
13.3 µM: TGI (MDA-MB-231 breast)
9.36 µM: TGI (NCI-H522 lung)
18.8 µM: TGI (M14 melanoma)
25.4 µM: TGI (UACC-257 melanoma) | TGI (MALME-3M melanoma)
39 µM: TGI (OVCAR-8 ovarian)
15.8 µM: TGI (U251 CNS)
> 23.5 µM: TGI (NCI/ADR-RES ovarian)
2.01 µM: TGI (MDA-MB-435)
9.42 µM: TGI (SNB-19 CNS)
30.4 µM: TGI (UO-31 renal)
> 66.3 µM: TGI (HL-60(TB) leukemia)
20.2 µM: TGI (NCI-H23 lung)
16 µM: TGI (SK-MEL-5 melanoma)
14.5 µM: TGI (OVCAR-3 ovarian)
39.5 µM: TGI (SF-268 CNS)
32.2 µM: TGI (OVCAR-5 ovarian)
27.8 µM: TGI (SK-MEL-28 melanoma)
22.9 µM: TGI (KM12 colon)
47.7 µM: TGI (TK-10 renal)
18 µM: TGI (IGROV1 ovarian)
18.1 µM: TGI (A498 renal)
56.7 µM: TGI (EKVX NSCLC)
6.42 µM: TGI (RXF 393 renal)
37.4 µM: TGI (OVCAR-4 ovarian)
9.85 µM: TGI (SF-539 CNS)
46.5 µM: TGI (MCF7 breast)
active: GI50 (SR leukemia) 0.415 µM | GI50 (MDA-MB-435) 0.271 µM | GI50 (MCF7 breast) 0.354 µM
> 26.5 µM: TGI (CCRF-CEM leukemia)
15.9 µM: TGI (HCT-116 colon)
25 µM: TGI (SK-OV-3 ovarian)
30.5 µM: TGI (T-47D breast)
42.7 µM: TGI (HT29 colon)
22.5 µM: TGI (ACHN renal)
16.6 µM: TGI (DU-145 prostate)
14.2 µM: TGI (HCC-2998 colon)
13.7 µM: TGI (HOP-92 NSCLC)
15 µM: TGI (HOP-62 NSCLC)
> 42.9 µM: TGI (SW-620 colon)
52.3 µM: TGI (BT-549 breast)
16.8 µM: TGI (UACC-62 melanoma)
20.9 µM: TGI (HCT-15 colon)
> 53.5 µM: TGI (K-562 leukemia)
27.2 µM: TGI (SK-MEL-2 melanoma)
23.5 µM: TGI (A549 NSCLC)
26.7 µM: TGI (COLO 205 colon)
inactive: GI50 (UACC-62 melanoma) 1.64 µM | GI50 (LOX IMVI melanoma) 3.12 µM | GI50 (KM12 colon) 0.836 µM | GI50 (UACC-257 melanoma) 6.28 µM | GI50 (SF-295 CNS) 0.671 µM | GI50 (MDA-MB-231 breast) 2.34 µM | GI50 (A549 NSCLC) 2.37 µM | GI50 (OVCAR-3 ovarian) 1.1 µM | GI50 (OVCAR-4 ovarian) 8.19 µM | GI50 (IGROV1 ovarian) 2.41 µM | GI50 (NCI-H460 lung) 2.49 µM | GI50 (SK-MEL-5 melanoma) 1.53 µM | GI50 (RPMI-8226 leukemia) 2.46 µM | GI50 (SNB-75 CNS) 3.21 µM | GI50 (DU-145 prostate) 2.96 µM | GI50 (SNB-19 CNS) 1.13 µM | GI50 (HL-60(TB) leukemia) 4.71 µM | GI50 (HCC-2998 colon) 3.68 µM | GI50 (U251 CNS) 2.35 µM | GI50 (SN12C renal) 3.58 µM | GI50 (BT-549 breast) 11.8 µM | GI50 (OVCAR-8 ovarian) 4.24 µM | GI50 (CAKI-1 renal) 2.78 µM | GI50 (NCI/ADR-RES ovarian) 1.37 µM | GI50 (HT29 colon) 12.3 µM | GI50 (NCI-H226 lung) 7.37 µM | GI50 (SW-620 colon) 0.751 µM | GI50 (PC-3 prostate) 1.94 µM | GI50 (SF-539 CNS) 2.2 µM | GI50 (SK-MEL-28 melanoma) 10.9 µM | GI50 (RXF 393 renal) 1.62 µM | GI50 (SK-OV-3 ovarian) 2.62 µM | GI50 (SF-268 CNS) 4.38 µM | GI50 (786-0 renal) 3.07 µM | GI50 (HOP-92 NSCLC) 1.91 µM | GI50 (TK-10 renal) 8.44 µM | GI50 (COLO 205 colon) 10.6 µM | GI50 (MALME-3M melanoma) 5.67 µM | GI50 (NCI-H522 lung) 1.85 µM | GI50 (T-47D breast) 2.36 µM | GI50 (M14 melanoma) 3.47 µM | GI50 (ACHN renal) 6.57 µM | GI50 (OVCAR-5 ovarian) 12.5 µM | GI50 (SK-MEL-2 melanoma) 8.34 µM | GI50 (A498 renal) 3.31 µM | GI50 (K-562 leukemia) 0.581 µM | GI50 (EKVX NSCLC) 10.3 µM | GI50 (NCI-H23 lung) 4.2 µM | GI50 (UO-31 renal) 11.2 µM | GI50 (HOP-62 NSCLC) 3.09 µM | GI50 (CCRF-CEM leukemia) 2.13 µM | GI50 (HCT-116 colon) 2.41 µM | GI50 (HS 578T breast) 4.34 µM | GI50 (HCT-15 colon) 2.77 µM
37.5 µM: TGI (NCI-H226 lung)
> 37.3 µM: TGI (CAKI-1 renal)
> 60 µM: TGI (HS 578T breast)

C1=C(c2ccccc2)O[C@H](COCc2ccccc2)C(OCc2ccccc2)[C@@H]1OCc1ccccc1 (some centres not stated)
> 10 µM: TGI (UACC-62 melanoma) | TGI (KM12 colon) | TGI (UACC-257 melanoma) | TGI (SF-295 CNS) | TGI (MDA-MB-231 breast) | TGI (A549 NSCLC) | TGI (SR leukemia) | TGI (IGROV1 ovarian) | TGI (SK-MEL-5 melanoma) | TGI (RPMI-8226 leukemia) | TGI (SNB-75 CNS) | TGI (DU-145 prostate) | TGI (HL-60(TB) leukemia) | TGI (HCC-2998 colon) | TGI (SN12C renal) | TGI (OVCAR-8 ovarian) | TGI (CAKI-1 renal) | TGI (HT29 colon) | TGI (SW-620 colon) | TGI (PC-3 prostate) | TGI (MDA-N) | TGI (SK-MEL-28 melanoma) | TGI (RXF 393 renal) | TGI (SK-OV-3 ovarian) | TGI (SF-268 CNS) | TGI (786-0 renal) | TGI (TK-10 renal) | TGI (COLO 205 colon) | TGI (MALME-3M melanoma) | TGI (T-47D breast) | TGI (M14 melanoma) | TGI (MCF7 breast) | TGI (MOLT-4 leukemia) | TGI (K-562 leukemia) | TGI (EKVX NSCLC) | TGI (NCI-H23 lung) | TGI (HOP-62 NSCLC) | TGI (CCRF-CEM leukemia) | TGI (HCT-15 colon)

O=C1CC(C(OCc2ccccc2)C(OCc2ccccc2)C(OCc2ccccc2)C(COCc2ccccc2)OCc2ccccc2)CC(=O)N1 (configuration not stated)
> 100 µM: TGI (LOX IMVI melanoma) | TGI (UACC-257 melanoma) | TGI (SF-295 CNS) | TGI (A549 NSCLC) | TGI (OVCAR-3 ovarian) | TGI (SR leukemia) | TGI (OVCAR-4 ovarian) | TGI (IGROV1 ovarian) | TGI (NCI-H460 lung) | TGI (SK-MEL-5 melanoma) | TGI (RPMI-8226 leukemia) | TGI (SNB-75 CNS) | TGI (DU-145 prostate) | TGI (SNB-19 CNS) | TGI (HL-60(TB) leukemia) | TGI (HCC-2998 colon) | TGI (U251 CNS) | TGI (SN12C renal) | TGI (BT-549 breast) | TGI (OVCAR-8 ovarian) | TGI (NCI/ADR-RES ovarian) | TGI (HT29 colon) | TGI (MDA-MB-435) | TGI (SW-620 colon) | TGI (PC-3 prostate) | TGI (MDA-N) | TGI (SK-MEL-28 melanoma) | TGI (RXF 393 renal) | TGI (SF-268 CNS) | TGI (786-0 renal) | TGI (HOP-92 NSCLC) | TGI (TK-10 renal) | TGI (MALME-3M melanoma) | TGI (M14 melanoma) | TGI (ACHN renal) | TGI (OVCAR-5 ovarian) | TGI (A498 renal) | TGI (MOLT-4 leukemia) | TGI (K-562 leukemia) | TGI (EKVX NSCLC) | TGI (NCI-H23 lung) | TGI (UO-31 renal) | TGI (HOP-62 NSCLC) | TGI (CCRF-CEM leukemia) | TGI (HS 578T breast) | TGI (HCT-15 colon)
